Measurements as given in EP3002287B1, “Thiochromeno[2,3-c]quinolin-12-one derivatives and their use as topoisomerase inhibitors” (National Defense Medical Center, priority 2014, dated 2016).
Like-named read-outs stand apart in the source and are kept apart here.

Legend:
DU-145 = test: MTT assay for cell cytotoxicity; type: cell-based, human; settings: 72 h, at least three independent experiments, read-out: MTT assay (IC50 ± SD) DU-145
Procedure: (§1) All of synthesis compounds were evaluated cell cytotoxicity by using MTT colorimetric assay on PC-3 and DU-145 cell lines. DU-145 and PC-3 are human hormone-refractory (androgen-independent) prostatic cancer cell lines from American Type Culture Collection (HTB-81™, ATCC, Rockville, MD)^125 and Bioresource Collection and Research Center (60122, BCRC, Taiwan)^126, respectively. Two of the "classical" cell lines were cultivated in RPMI-1640 medium supplemented with 5% fetal bovine serum (v/v), 100 U/mL penicillin, and […] streptomycin. Approximately 2 x 10^3 cells were seeded into each well of a 96-well plate and incubated in 5% CO2 at 37 °C for 24 h. To evaluate the in vitro cytotoxicity, all the synthetic compounds were dissolved in DMSO, prepared immediately before the experiments and diluted into the complete medium before being added to each well of a 96-well plate. Each compound was then added to the culture medium for designated various concentrations (0.15, 0.5, 1.5, 5, 15 µM). After 72 h, an amount of 100 µL of MTT (1 mg/mL) was added to each well, and the samples were incubated at 37 °C for 4 h. After removing the MTT solution, 100 µL of DMSO was added to each well and incubated at 37 °C for another 20 mins. The absorbency at 560 nm was measured by using an ELISA reader.
(§2) Results are expressed as mean values of at least three independent experiments. The IC50 values of testing compounds were described in Table 1. Table1. Effects of 10-Chloro-12H-thiochromeno[2,3-c]quinolin -12-one derivatives on cytotoxicity by MTT assay.

PC-3 = test: MTT assay for cell cytotoxicity; type: cell-based, human; settings: 72 h, at least three independent experiments, read-out: MTT assay (IC50 ± SD) PC-3
Procedure: as §1, §2

TOP II = target: T1, TOP II (Homo sapiens, UniProt P11388); test: Topoisomerase II activity assay (TOP II-catalyzed relaxation of plasmid DNA); type: biochemical; settings: primary assay at 25 and/or 50 µM
T1 construct: purchased TopoGEN TG-2000H-1
T1 sequence (P11388 whole entry): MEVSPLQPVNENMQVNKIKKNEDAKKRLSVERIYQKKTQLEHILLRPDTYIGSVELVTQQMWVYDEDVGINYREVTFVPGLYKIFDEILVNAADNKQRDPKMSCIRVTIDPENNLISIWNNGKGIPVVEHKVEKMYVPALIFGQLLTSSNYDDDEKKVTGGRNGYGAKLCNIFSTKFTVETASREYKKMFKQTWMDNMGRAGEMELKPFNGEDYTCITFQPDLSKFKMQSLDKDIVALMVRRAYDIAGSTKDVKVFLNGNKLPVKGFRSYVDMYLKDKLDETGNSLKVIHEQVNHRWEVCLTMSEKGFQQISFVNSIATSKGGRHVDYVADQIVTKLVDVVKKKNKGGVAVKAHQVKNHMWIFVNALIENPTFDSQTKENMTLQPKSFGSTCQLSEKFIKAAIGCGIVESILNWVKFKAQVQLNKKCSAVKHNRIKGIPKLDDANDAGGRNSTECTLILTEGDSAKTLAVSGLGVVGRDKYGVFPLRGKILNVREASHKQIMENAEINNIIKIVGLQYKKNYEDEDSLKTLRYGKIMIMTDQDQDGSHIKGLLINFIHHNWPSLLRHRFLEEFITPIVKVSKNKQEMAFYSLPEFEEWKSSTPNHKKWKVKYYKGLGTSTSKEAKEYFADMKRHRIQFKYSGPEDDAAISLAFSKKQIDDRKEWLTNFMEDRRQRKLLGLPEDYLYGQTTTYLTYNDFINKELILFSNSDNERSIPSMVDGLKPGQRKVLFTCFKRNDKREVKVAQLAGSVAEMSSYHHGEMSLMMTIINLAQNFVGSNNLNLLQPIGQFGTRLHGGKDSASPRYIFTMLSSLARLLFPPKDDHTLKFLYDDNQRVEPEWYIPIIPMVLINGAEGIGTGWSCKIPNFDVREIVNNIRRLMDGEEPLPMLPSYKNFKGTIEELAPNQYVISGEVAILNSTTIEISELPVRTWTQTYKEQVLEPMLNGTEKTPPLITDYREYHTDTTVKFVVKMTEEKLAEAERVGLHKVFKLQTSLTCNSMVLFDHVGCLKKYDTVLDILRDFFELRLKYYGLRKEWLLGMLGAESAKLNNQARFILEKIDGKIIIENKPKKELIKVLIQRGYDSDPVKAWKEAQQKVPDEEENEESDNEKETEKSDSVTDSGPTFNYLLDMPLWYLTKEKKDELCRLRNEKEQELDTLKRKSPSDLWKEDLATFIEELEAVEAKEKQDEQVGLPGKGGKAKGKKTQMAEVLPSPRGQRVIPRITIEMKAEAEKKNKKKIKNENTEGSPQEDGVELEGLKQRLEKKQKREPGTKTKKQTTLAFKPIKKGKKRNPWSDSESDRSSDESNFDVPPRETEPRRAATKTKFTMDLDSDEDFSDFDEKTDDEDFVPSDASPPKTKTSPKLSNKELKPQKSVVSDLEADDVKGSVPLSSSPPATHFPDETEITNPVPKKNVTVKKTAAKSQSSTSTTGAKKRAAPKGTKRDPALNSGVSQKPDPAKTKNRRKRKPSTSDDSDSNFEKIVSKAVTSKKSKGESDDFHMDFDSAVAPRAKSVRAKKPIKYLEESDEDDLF
Procedure: We also performed TOP 11-catalyzed relaxation of plasmid DNA assays(Fig. 5-7) to evaluate if compounds could inhibit TOP II. […] The IC50 value of compounds 7, N7, N8, N14, N15, N18, and N19 were about 10, 10, 1, 10, 5, 1, and 1 µM, respectively (detect by TopoGEN TG2005H, TG-2000H-1).

TOP I = target: T2, TOP I (Homo sapiens, UniProt P11387); test: Topoisomerase I activity assay (DNA relaxation catalyzed by TOP I); type: biochemical; settings: primary assay at 25 and/or 50 µM
T2 construct: purchased TopoGEN TG2005H
T2 sequence (P11387 1-765): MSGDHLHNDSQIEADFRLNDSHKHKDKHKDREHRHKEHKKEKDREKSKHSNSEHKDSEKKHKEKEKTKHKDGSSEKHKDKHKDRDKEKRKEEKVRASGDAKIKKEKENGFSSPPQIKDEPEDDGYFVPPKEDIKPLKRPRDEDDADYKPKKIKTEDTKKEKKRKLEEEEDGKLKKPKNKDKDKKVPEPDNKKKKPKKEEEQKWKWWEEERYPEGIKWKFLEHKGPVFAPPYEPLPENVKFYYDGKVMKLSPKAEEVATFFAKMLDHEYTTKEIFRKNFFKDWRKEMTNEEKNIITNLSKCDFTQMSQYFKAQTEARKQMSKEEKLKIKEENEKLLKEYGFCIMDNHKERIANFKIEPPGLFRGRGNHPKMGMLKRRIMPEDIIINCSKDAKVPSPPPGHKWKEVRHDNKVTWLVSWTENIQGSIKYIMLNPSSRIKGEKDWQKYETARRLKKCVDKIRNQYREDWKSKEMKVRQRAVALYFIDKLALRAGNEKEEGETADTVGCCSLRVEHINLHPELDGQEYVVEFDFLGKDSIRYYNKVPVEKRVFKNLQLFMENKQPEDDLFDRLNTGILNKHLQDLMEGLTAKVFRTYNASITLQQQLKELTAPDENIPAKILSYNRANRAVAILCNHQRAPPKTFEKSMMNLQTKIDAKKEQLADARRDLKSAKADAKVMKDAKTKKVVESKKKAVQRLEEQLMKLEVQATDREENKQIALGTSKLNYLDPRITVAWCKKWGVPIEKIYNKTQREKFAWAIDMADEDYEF
Procedure: According to the cell cytotoxicity, compounds 5, 7, 8, 16, 19, N2, N7, N8, N9, N14-N19, and N25 were also selected for primary TOP I and II activities assays at 25 and/or 50 µM (Fig. 2-4).

Compound	inhibitory effects in TOP I activity assay compared with CPT (TOP I)	IC50 (DU-145; Homo sapiens)	IC50 (PC-3; Homo sapiens)	inhibitory effects on TOP II compared with the positive agent VP-16 (TOP II)	IC50 (DU-145)	IC50 (PC-3)
O=c1c2cc(Cl)ccc2sc2c(NCCCNCCO)nc3ccccc3c12 [Compound N19, 10-Chloro-6-((3-((2-hydroxyethyl)amino)propyl)amino)-12H-th iochromeno[2,3-c]quinolin-12-one]	–	1.5 ± 1.32 µM	1.98 ± 0.72 µM	more potent inhibitory effects than the positive agent VP-16	–	–
O=c1c2cc(Cl)ccc2sc2c(NCCNCCO)nc3ccccc3c12 [Compound N15, 10-Chloro-6-((2-((2-hydroxyethyl)amino)ethyl)amino)-12H-thio chromen[2,3-c]quinolin-12-one]	more potent inhibitory effects than CPT	3.81 ± 1.88 µM	3.44 ± 1.81 µM	more potent inhibitory effects than the positive agent VP-16	–	–
CCN(CC)CCCNc1nc2ccccc2c2c(=O)c3cc(Cl)ccc3sc12 [Compound N18, 10-Chloro-6-((3-(diethylamino)propyl)amino)-12H-thiochrome no[2,3-c]quinolin-12-one]	more potent inhibitory effects than CPT	3.53 ± 1.05 µM	2.22 ± 0.21 µM	more potent inhibitory effects than the positive agent VP-16	–	–
CCN(CC)CCNc1nc2ccccc2c2c(=O)c3cc(Cl)ccc3sc12 [Compound N8, 10-Chloro-6-((2-(diethylamino)ethyl)amino)-12H-thiochromen o[2,3-c]quinolin-12-one]	–	1.73 ± 0.72 µM	1.11 ± 0.69 µM	more potent inhibitory effects than the positive agent VP-16	–	–
O=c1c2cc(Cl)ccc2sc2c(NCc3ccccc3)nc3ccccc3c12 [Compound N25, 6-(Benzylamino)-10-chloro-12H-thiochromeno[2,3-c]quinolin-12-tone]	more potent inhibitory effects than CPT	13.5 ± 0.69 µM	11.2 ± 1.55 µM	–	–	–
O=c1c2cc(Cl)ccc2sc2c(NCCCCCO)nc3ccccc3c12 [Compound N11, 10-Chloro-6-(5-pentanolamino)-12H-thiochromeno[2,3-c]quin olin-12-one]	–	–	–	–	4.95 ± 0.58 µM	8.38 ± 3.39 µM
CCN1CCN(c2nc3ccccc3c3c(=O)c4cc(Cl)ccc4sc23)CC1 [Compound 9, 10-Chloro-6-(4-ethylpiperazin-1-yl)-12H-thiochromeno[2,3-c]q uinolin-12-one]	–	> 15 µM	12 ± 3.41 µM	–	–	–
O=c1c2cc(Cl)ccc2sc2c(N3CCC(CCCC4CCNCC4)CC3)nc3ccccc3c12 [Compound 19, 10-Chloro-6-(4-(3-(piperidin-4-yl)propyl)piperidin-1yl)-12H-thi ochromeno[2,3-c]quinolin-12-one]	–	9.02 ± 1.2 µM	6.36 ± 0.17 µM	–	–	–

The next lines start with results.

inhibitory effects in TOP I activity assay compared with CPT (TOP I)	Compound	IC50 (DU-145; Homo sapiens)	IC50 (PC-3; Homo sapiens)	inhibitory effects on TOP II compared with the positive agent VP-16 (TOP II)	IC50 (DU-145)	IC50 (PC-3)
more potent inhibitory effects than CPT	CN(C)CCCNc1nc2ccccc2c2c(=O)c3cc(Cl)ccc3sc12 [Compound N17, 10-Chloro-6-((3-(dimethylamino)propyl)amino)-12H-thiochrom eno[2,3-c]quinolin-12-one]	2.7 ± 0.16 µM	2.27 ± 0.09 µM	–	–	–
more potent inhibitory effects than CPT	NCCNc1nc2ccccc2c2c(=O)c3cc(Cl)ccc3sc12 [Compound N14, 6-((2-Aminoethyl)amino)-10-chloro-12H-thiochromeno[2,3-c]q uinolin-12-one]	1.8 ± 0.4 µM	1.64 ± 0.55 µM	more potent inhibitory effects than the positive agent VP-16	–	–
more potent inhibitory effects than CPT	CN(C)CCNc1nc2ccccc2c2c(=O)c3cc(Cl)ccc3sc12 [Compound N7, 10-Chloro-6-((2-(dimethylamino)ethyl)amino)-12H-thiochrome no[2,3-c]quinolin-12-one]	5.94 ± 3.45 µM	2.25 ± 0.61 µM	more potent inhibitory effects than the positive agent VP-16	–	–
more potent inhibitory effects than CPT	O=c1c2cc(Cl)ccc2sc2c(N3CCNCC3)nc3ccccc3c12 [Compound 7, 10-Chloro-6-(piperazin-1-yl)-12H-thiochromeno[2,3-c]quinolin-12-one]	5.01 ± 1.68 µM	2.84 ± 0.64 µM	more potent inhibitory effects than the positive agent VP-16	–	–
